This assay deals with T1, yeast topoisomerase II (yTOPO II) (Saccharomyces cerevisiae, UniProt P06786).
T1 construct: gene TOP2; purified enzyme from the Inspiralis yeast topoisomerase II relaxation assay kit
T1 sequence (P06786 1-1428): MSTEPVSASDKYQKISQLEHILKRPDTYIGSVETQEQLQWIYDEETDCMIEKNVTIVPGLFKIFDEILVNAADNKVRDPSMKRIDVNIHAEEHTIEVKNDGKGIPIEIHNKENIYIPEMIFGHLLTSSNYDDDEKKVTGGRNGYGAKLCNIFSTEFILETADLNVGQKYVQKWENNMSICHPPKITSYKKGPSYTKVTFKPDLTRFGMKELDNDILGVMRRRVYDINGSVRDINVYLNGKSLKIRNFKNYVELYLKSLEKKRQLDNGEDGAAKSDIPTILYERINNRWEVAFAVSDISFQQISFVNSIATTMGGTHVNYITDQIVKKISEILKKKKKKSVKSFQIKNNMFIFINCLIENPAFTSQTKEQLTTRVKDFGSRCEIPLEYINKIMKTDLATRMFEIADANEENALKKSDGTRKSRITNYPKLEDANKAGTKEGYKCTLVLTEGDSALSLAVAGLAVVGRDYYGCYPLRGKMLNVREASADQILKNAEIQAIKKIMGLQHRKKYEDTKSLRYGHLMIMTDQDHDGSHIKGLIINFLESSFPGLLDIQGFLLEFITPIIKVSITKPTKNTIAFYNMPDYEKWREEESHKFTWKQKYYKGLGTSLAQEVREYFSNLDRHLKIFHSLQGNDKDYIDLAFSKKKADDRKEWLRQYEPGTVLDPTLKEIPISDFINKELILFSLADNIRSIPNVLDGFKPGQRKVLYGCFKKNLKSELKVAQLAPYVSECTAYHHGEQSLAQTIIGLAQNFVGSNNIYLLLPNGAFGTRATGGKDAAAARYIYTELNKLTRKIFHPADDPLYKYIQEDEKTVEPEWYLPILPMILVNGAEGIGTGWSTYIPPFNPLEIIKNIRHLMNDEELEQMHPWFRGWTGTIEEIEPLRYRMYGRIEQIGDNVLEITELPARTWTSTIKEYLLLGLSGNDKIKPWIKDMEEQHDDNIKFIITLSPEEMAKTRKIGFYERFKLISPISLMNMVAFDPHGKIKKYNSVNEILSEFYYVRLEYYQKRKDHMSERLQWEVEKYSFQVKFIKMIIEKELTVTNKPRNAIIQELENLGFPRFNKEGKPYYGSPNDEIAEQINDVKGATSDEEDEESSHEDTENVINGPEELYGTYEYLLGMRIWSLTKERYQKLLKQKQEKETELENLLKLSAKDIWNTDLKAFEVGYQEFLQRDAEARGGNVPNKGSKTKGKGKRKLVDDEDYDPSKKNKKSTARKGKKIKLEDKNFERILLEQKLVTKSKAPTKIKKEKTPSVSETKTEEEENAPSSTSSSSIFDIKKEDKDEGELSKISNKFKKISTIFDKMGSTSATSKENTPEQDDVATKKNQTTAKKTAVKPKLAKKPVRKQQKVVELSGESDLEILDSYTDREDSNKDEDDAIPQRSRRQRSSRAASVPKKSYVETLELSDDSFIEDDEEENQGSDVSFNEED
Description: plasmid DNA relaxation assay, gel densitometry. It counts as biochemical. The settings on record: for Complete inhibition: supercoiled pBR322 as DNA substrate. An excerpt:
plasmid DNA relaxation assay, gel densitometry on yeast topoisomerase II (yTOPO II)

A value given as a limit tells only on which side of the number the result lay.

For orientation: IC50 means the concentration that gives 50% inhibition. A lower IC50 goes with inhibition by little substance. Take `O=c1c2cc3ccccc3cc2oc2c([N+](=O)[O-])ccc(NCCN3CCOCC3)c12` [compound 44, 1-((2-morpholinoethyl)amino)-4-nitro-12H-benzo[b]xanthen-12-one]: the IC50 turned out to be 5.36 ± 1.22 µM.

`CCN(CC)CCn1nc2c3c(c([N+](=O)[O-])ccc31)Oc1cc3ccccc3cc1-2` [compound 13, 13]: the “Complete inhibition” value was more than 150 µM.

With `CN1CCN(CCCNc2ccc([N+](=O)[O-])c3oc4cc5ccccc5cc4c(=O)c23)CC1` [compound 42, 1-((3-(4-methylpiperazin-1-yl)propyl)amino)-4-nitro-12H-benzo[b]xanthen-12-one], the midpoint of inhibition, the IC50, lay at 5.86 ± 1.07 µM.

Consider `O=c1c2cc3ccccc3cc2oc2c([N+](=O)[O-])ccc(NCCN3CCCC3)c12` [compound 9, 9], for which, under “highest concentration limited by solubility”, the “Complete inhibition” value is given as more than 50 µM.

Source of the values: PMC10363532, “Xanthone synthetic derivatives with high anticandidal activity and positive mycostatic selectivity index values” (Scientific Reports, 2023).
